pIC50: −log10 of the molar value.
Columns and labels:
MDA-MB-453 xenograft = experiment: MDA-MB-453 breast cancer xenograft; format: in vivo, nude mice; conditions: 50 mg/kg or 5 mg/kg daily, tumor volume (FIG. 8)
Excerpt: An MDA-MB-453 breast cancer xenograft was implanted under the skin of a nude mouse. […] The volume of the tumor xenograft was monitored daily.

Ramos = experiment: Sensitivity of Ramos cell line; format: cell-based
Excerpt: To identify biomarkers that correlate with response to Compound 1, phosphorylation events in the BCR signal transduction pathway were investigated.

[1] = test system: Btk expressing B cell lymphoma cell lines; experiment: Sensitivity of a panel of nine Btk expressing B cell lymphoma cell lines; format: cell-based; conditions: two cell lines with low pERK levels
Method: After 72 hours, cell number was measured using Alamar Blue using manufacturer's protocol. A dilution series of untreated cells was run in parallel to verify that the Alamar Blue assay reliably reflected cell number and that growth conditions, were not limiting. […] GI50 values were confirmed in two or more separate experiments for each cell line.
A panel of nine Btk expressing B cell lymphoma cell lines was screened for basal pERK levels.

proteinuria = experiment: Mouse MRL/lpr model of lupus; format: in vivo, MRL/lpr mice; conditions: 3.125 mg/kg, 12.5 mg/kg, and 50 mg/kg orally once per day
[2] = Plasma concentrations in orally dosed rats; format: in vivo, Male jugular vein cannulated rats; conditions: rat, 8 mg/kg single dose by oral gavage, in combination
Method: Male jugular vein cannulated rats were administered a single dose of all test compounds at 8 mg/kg each, in combination by oral gavage. Dose volumes were adjusted based on body weight data collected immediately prior to dosing. Blood samples were collected at 0.0833 (5 minutes), 0.333 (20 minutes), 1, 3, 6, 9, and 24 hours post-dosing from orally dosed rats. The samples were collected into plasma separator Microtainer tubes with anticoagulant (lithium heparin). Plasma samples were prepared by centrifugation (5 min at 5000×g), and at least 100 μL were transferred to storage tubes and stored frozen at −80° C. Plasma samples were thawed and 75 uL aliquots were transferred to centrifuge tubes to which 10 μL aliquots of internal standard solution (1 μg/mL) were added. The samples were not diluted with blank plasma prior to further processing. Soluble proteins were precipitated by the addition of 200 μL of acetonitrile, followed by centrifugation (20 min at 16,000×g). The samples were evaporated to dryness and reconstituted in 200 μL of water containing 0.2% formic acid and 10% methanol. All samples were loaded onto an autosampler maintained at 6° C. and evaluated for concentrations of test compounds using LC-MS/MS.

mast cell degranulation = experiment: Mouse passive cutaneous anaphylaxis model; format: in vivo; conditions: increasing doses, single oral dose
Method: (FIG. 4) Mice were sensitized with an intradermal injection of monoclonal anti-DNP-IgE in the back. […] After one hour, animals were challenged with an intravenous injection of DNP-BSA and Evans Blue dye. Mast cell degranulation leads to vascular permeability and the distribution of the dye into the skin of the back. The area of extravasation after 1 hour is measured.

normal human B cells = experiment: B cell activation after brief exposure and washout (CD69); format: cell-based; conditions: 1 hour exposure, washed three times, IgM F(ab')2 stimulation 18 hours
Method: B cells were purified from blood from healthy donors by negative selecting using the RosetteSep Human B cell enrichment cocktail. […] After incubation for 1 hour at 37° C., cells were washed three times using an 8-fold dilution in growth media for each wash. Cells were then stimulated with 10 ug/ml of IgM F(ab′)2 for 18 hours at 37° C. Cells were then stained with anti-CD69-PE antibody and analyzed by flow cytometry using standard conditions.

[3] = target: Tec family kinases, including Btk, and Src family kinases; experiment: In vitro profiling against a panel of greater than 100 kinases; format: biochemical
Excerpt: By way of example only and in some embodiments, the observed potency, selectivity, and cell permeability of compounds such as Compound 2 are appropriate to incorporate these molecules into a Kinase-targeted, activity based probe that allows direct visualization of Kinase activity in intact cells. […] Without limiting the scope of the compositions and methods described herein, it is postulated that the structural basis for the selectivity is covalent modification of a non-catalytic cysteine residue (Cys 481 in Btk) that is conserved in the ATP binding pocket of the Tec family and several other kinases.

BTK = BTK (Homo sapiens (Human), UniProt Q06187); experiment: HotSpot kinase assay, BTK; format: biochemical; conditions: Table 2; 1 uM ATP, one hour incubation with inhibitor
Method: For enzyme inhibition assays, compounds were tested in range often concentrations from 10 uM to 0.0005 uM using purified enzymes and the Hotspot kinase assay. Reaction conditions were 1 uM ATP, one hour incubation with inhibitor, and kinase activity detected using 33-ATP phosphorylation of an appropriately selected peptide substrate.

HER4 = HER4 (Homo sapiens (Human), UniProt Q15303); experiment: HotSpot kinase assay, HER4; format: biochemical; conditions: Table 1, first of two rows printed HER4; 1 uM ATP
Chain of HER4 (Q15303 other isoform, or with tags, fused parts or gaps): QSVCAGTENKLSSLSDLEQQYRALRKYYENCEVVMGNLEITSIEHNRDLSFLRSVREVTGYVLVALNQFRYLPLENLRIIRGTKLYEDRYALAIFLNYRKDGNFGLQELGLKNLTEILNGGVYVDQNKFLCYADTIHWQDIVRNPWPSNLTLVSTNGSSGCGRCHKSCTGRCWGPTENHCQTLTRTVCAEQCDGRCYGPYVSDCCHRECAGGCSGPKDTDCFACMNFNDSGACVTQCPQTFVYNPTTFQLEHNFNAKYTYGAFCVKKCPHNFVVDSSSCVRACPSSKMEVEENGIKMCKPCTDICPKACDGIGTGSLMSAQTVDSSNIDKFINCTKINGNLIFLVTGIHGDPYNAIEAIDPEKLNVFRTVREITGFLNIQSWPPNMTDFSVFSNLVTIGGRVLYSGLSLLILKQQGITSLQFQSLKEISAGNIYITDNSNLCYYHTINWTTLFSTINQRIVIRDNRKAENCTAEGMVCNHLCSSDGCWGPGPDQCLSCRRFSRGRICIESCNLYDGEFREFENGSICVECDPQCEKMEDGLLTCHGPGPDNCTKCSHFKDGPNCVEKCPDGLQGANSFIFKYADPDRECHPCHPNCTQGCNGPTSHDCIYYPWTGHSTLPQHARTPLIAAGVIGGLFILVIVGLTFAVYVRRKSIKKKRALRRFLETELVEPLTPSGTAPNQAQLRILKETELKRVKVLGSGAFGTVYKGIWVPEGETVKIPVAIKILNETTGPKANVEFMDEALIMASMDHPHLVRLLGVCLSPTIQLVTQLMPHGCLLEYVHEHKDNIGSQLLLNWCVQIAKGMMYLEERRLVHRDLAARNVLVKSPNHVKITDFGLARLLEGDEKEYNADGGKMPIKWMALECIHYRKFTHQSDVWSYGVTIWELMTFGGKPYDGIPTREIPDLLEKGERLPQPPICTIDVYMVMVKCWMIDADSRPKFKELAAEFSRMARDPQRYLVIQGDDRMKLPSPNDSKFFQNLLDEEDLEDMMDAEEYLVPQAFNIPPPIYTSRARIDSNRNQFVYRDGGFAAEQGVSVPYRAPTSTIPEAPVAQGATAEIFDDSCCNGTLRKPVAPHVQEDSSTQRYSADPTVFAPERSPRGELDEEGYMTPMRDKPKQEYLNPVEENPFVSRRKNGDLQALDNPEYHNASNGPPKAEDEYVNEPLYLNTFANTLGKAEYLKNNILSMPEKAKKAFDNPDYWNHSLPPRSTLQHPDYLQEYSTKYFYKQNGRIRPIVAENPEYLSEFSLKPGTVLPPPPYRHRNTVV

Chain of BTK (Q06187 whole entry): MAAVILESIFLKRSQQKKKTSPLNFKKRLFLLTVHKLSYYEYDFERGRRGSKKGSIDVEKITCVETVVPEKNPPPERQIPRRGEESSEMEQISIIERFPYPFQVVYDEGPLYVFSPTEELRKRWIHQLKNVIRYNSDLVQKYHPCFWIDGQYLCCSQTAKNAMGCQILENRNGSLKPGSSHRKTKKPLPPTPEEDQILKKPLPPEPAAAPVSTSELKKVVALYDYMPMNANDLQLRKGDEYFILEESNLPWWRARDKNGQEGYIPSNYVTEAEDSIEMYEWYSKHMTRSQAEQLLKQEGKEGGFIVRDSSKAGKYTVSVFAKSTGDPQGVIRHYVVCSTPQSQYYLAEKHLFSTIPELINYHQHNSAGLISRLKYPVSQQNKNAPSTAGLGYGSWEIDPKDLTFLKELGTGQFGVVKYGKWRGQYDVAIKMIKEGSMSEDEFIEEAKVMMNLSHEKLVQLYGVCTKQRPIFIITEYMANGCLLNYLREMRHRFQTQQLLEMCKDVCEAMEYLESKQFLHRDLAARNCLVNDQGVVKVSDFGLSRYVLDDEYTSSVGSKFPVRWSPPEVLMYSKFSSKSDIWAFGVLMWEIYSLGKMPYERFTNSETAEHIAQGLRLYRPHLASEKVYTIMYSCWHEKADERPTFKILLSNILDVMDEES

C=CC(=O)N1CCC[C@@H](n2nc(-c3ccc(Oc4ccccc4)cc3)c3c(N)ncnc32)C1 [Compound 1]
efficacy in xenograft (MDA-MB-453 xenograft): efficacy
sensitivity to compound (Ramos): resistant
sensitivity to compound [1]: resistant
proteinuria (proteinuria): significantly reduced proteinuria
in vivo half-life [2]: short half-life
amount of Evans Blue release (mast cell degranulation): significantly decrease the amount of Evans Blue release
inhibition of B cell activation (normal human B cells): sufficient to inhibit B cell activation

CN(C)C/C=C/C(=O)N1CCC[C@@H](n2nc(-c3ccc(Oc4ccccc4)cc3)c3c(N)ncnc32)C1 [Compound 2]
kinase panel profile [3]: highly potent and selective inhibitor of Tec family kinases

CN(C/C=C/C(=O)N1CCCC(n2nc(-c3ccc(Oc4ccccc4)cc3)c3c(N)ncnc32)C1)CCO (centres unmarked) [Compound 3]
pIC50 (BTK): 7.68

C=CC(=O)N[C@H]1CC[C@@H](n2nc(-c3ccc(Oc4ccccc4)cc3)c3c(N)ncnc32)CC1 [Compound 9]
pIC50 (HER4): 5.81

CN(C)C/C=C/C(=O)N1CCC[C@H]1Cn1nc(-c2ccc(Oc3ccccc3)cc2)c2c(N)ncnc21 [Compound 12, (E)-1-((S)-2-((4-amino-3-(4-phenoxyphenyl)-1H-pyrazolo[3,4-d]pyrimidin-1-yl)methyl)pyrrolidin-1-yl)-4-(dimethylamino)but-2-en-1-one]
in vivo half-life [2]: short half-life

— US9278100B2, “Inhibitors of bruton's tyrosine kinase for the treatment of solid tumors” (Pharmacyclics LLC, priority 2008, dated 2016)
